Assay results from patent US10100366B2, “Methods of detecting cancers sensitive to cabozantinib” (Oregon Health & Science University, priority 2015, dated 2018).

Key:
[1] = system: CD74-ROS1-rearranged lung adenocarcinoma with acquired CD74-ROS1 D2033N mutation; test: Patient case: cabozantinib after acquired crizotinib resistance (phase II trial NCT01639508), RECIST v1.1; assay type: in vivo, human; conditions: one patient, 60 mg daily, at 12 weeks
Procedure: The patient received cabozantinib at a dose of 60 mg daily in 28-day cycles as part of an ongoing phase II clinical trial (NCT01639508) with an arm for ROS1-rearranged lung cancers. Inclusion criteria for patients in this trial were as follows: pathologic or cytologic evidence of non-small-cell lung cancer (NSCLC), clinical stage IV or recurrent/medically inoperable disease, a Karnofsky performance status of more than 70%, a life expectancy of more than 12 weeks, adequate hematologic, renal, and hepatic function, and measurable disease. Informed consent was obtained after the nature and possible consequences of the studies were explained. Treatment was discontinued in the event of disease progression, unacceptable toxicity, or patient withdrawal. Dose reductions were permitted as per a prescribed algorithm. Response was assessed using the Response Evaluation Criteria in Solid Tumors (RECIST) version 1.1 (Eisenhauer E A et al, Eur J Cancer 45, 228-247 (2009); incorporated by reference herein). Imaging was performed at baseline, 4 weeks, and every 8 weeks thereafter. In addition, scans to confirm response were performed as per RECIST. […]
Of 644 sequencing reads over that specific region of ROS1 that were at […] depth, the variant frequency of c.6097G>A was 14% in the crizotinib-resistant tumor specimen and undetectable the matched normal peripheral blood control. […]

[2] = target: T1, Ba/F3 cells expressing native CD74-ROS1 (Homo sapiens, UniProt P08922); test: Cell growth/viability assay (MTS), Ba/F3 native CD74-ROS1; assay type: cell-based; conditions: 72 h exposure, read-out: IC50, growth inhibition
T1 construct: CD74 (fusion partner, N-terminal part of CD74); expressed in transfected cells; host or cells: Ba/F3 (murine pro-B), retroviral transduction, IL-3 withdrawn; the other entry of the earlier key: CD74 (P04233, HLA class II histocompatibility antigen gamma chain)
T1 sequence (P08922 with tags, fused parts or gaps): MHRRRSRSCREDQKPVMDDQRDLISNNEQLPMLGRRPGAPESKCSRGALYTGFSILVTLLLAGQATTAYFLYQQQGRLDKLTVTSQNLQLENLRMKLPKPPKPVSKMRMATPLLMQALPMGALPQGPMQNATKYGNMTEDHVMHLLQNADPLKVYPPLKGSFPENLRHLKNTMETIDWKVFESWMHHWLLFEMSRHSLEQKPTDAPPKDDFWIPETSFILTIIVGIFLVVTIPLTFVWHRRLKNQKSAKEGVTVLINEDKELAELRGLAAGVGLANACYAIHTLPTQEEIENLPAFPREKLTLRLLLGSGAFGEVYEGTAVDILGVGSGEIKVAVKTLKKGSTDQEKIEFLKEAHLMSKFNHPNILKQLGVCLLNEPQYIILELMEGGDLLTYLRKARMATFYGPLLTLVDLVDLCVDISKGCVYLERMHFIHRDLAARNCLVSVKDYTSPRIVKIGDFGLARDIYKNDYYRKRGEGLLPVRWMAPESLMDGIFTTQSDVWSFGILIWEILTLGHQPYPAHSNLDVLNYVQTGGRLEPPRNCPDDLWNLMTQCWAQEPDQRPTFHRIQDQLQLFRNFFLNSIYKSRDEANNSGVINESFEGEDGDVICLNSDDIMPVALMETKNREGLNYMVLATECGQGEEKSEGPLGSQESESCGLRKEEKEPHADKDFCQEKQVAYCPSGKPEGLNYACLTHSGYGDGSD
Procedure: (§1) CD74-ROS1D2033N was generated using site-directed mutagenesis by following manufacturer's protocol (Agilent). Ba/F3 cells were maintained at densities of 0.5-1.5×10^6 cells/mL and infected with retrovirus encoding native or mutant versions of human CD74-ROS1. GFP-based selection of transduced cells was performed with a FACSAria cell sorter (BD Biosciences). Stable cell lines were washed with complete medium to remove IL-3. Cells that grew out after IL-3 withdrawal were maintained in complete medium and used for in vitro assays.
(§2) Inhibitors were prepared as 1 mM stocks in DMSO prior to each experiment. […] Ba/F3 cells expressing CD74-ROS1 constructs were seeded (800 cells/well; 25 μL) into drug plates using a Multidrop Combi Reagent Dispenser (Thermo Scientific), and plates were incubated for 72 h at 37° C., 5% CO2. Viability was measured using a methanethiosulfonate (MTS)-based assay (CellTiter96 Aqueous One Solution; Promega) read on a Biotek Synergy 2 plate reader. Proliferation experiments were performed three independent times in triplicate.

[3] = target: T2, Ba/F3 cells expressing CD74-ROS1 D2033N (Homo sapiens, UniProt P08922, D2033N); test: Cell growth/viability assay (MTS), Ba/F3 CD74-ROS1 D2033N; assay type: cell-based
T2 construct: CD74 (fusion partner, N-terminal part of CD74); expressed in transfected cells; host or cells: Ba/F3 (murine pro-B), retroviral transduction, IL-3 withdrawn; the other entry of the earlier key: CD74 (P04233, HLA class II histocompatibility antigen gamma chain)
T2 sequence (P08922 1883-2347 D2033N limits assumed): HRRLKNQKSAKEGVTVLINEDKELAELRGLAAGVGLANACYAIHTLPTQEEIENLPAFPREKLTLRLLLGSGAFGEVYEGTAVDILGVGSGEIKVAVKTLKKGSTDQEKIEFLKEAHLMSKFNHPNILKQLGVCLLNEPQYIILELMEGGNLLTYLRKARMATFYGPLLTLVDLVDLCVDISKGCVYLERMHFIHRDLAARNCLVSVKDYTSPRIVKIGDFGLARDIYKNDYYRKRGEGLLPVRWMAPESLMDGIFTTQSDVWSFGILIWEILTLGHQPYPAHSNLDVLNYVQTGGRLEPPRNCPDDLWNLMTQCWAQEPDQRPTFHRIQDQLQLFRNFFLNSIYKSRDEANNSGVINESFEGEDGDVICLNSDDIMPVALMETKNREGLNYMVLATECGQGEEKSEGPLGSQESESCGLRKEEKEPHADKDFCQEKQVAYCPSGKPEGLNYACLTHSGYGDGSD
Procedure: as §1, §2

[4] = system: ROS1-rearranged lung cancers; conditions: phase 1 expansion cohort data; cited from earlier work
[5] = system: CD74-ROS1-rearranged lung adenocarcinoma; test: Patient case: crizotinib treatment, response by RECIST v1.1; assay type: in vivo, human; conditions: one patient, 250 mg twice daily
Description: A never smoker with metastatic lung adenocarcinoma involving the pleura received three cycles of first-line systemic therapy with cisplatin, pemetrexed, and bevacizumab (FIG. 1, FIG. 9).

[6] = system: Ba/F3 CD74-ROS1 cells; test: Immunoblot analysis of ROS1 and downstream effector phosphorylation, native CD74-ROS1 cells; assay type: cell-based, human; conditions: 2 h treatment
Procedure: Ba/F3 CD74-ROS1 and CD74-ROS1D2033N […] cells were treated with the indicated concentrations of inhibitors for 2 h, pelleted, washed once in ice-cold PBS, and lysed in 200 μL of cell lysis buffer (Cell Signaling Technology) that was supplemented with 0.25% deoxycholate, 0.05% SDS, and protease and phosphatase inhibitors. Equal amounts of protein were extracted with SDS sample buffer for 15 min at 80° C. and resolved on 4-15% Tris-glycine or 4-12% Bis-Tris precast gels (Criterion; Bio-Rad). Proteins transferred to Immobilon-FL membranes (Millipore) were probed with: phospho-ROS1 [Cell Signaling Technology (CST); 3078, 1:1000], total ROS1 (CST; 3266, 1:1000), phospho-ERK1/2 (CST; 9101, 1:1000), total ERK2 (Santa Cruz; sc-1647, 1:2000), phospho-AKT (CST; 4060, 1:1000), AKT (BD Transduction Laboratories; 610860, 1:1000), pSHP2 (CST; 3703), pSTAT3 (CST, 9131), and GAPDH (Ambion; AM4300, 1:5000). Blots were imaged using either a LI-COR Odyssey imaging system or the Bio-Rad ChemiDoc imaging station according to the manufacturer's protocol for immunoblot detection with use of Infrared dye or horseradish peroxidase-conjugated secondary antibodies, respectively.

Q: Which “reduction in disease burden” value [1] does the source give for `COc1cc2nccc(Oc3ccc(NC(=O)C4(C(=O)Nc5ccc(F)cc5)CC4)cc3)c2cc1OC` [cabozantinib] here?
A: The value was 92%.

Q: What about the IC50 [2] of the same compound?
A: The IC50 was 0.78 nM.

Q: What about the IC50 ([3]; read-out: IC50, growth inhibition, Ba/F3 CD74-ROS1D2033N cells, 72 h exposure) of the same compound?
A: The IC50 was 2.8 nM.

Q: Which “fold decrease in sensitivity, CD74-ROS1D2033N compared to native CD74-ROS1” value ([3]; Ba/F3 cells, 72 h, ratio of IC50) does the source give for `Cc1cc(Nc2ncc(Cl)c(Nc3ccccc3S(=O)(=O)C(C)C)n2)c(OC(C)C)cc1C1CCNCC1` [ceritinib] here?
A: The value was 4.3 fold.

Q: What does the source list for `C[C@@H](Oc1cc(-c2cnn(C3CCNCC3)c2)cnc1N)c1c(Cl)ccc(F)c1Cl` [crizotinib]?
A: median progression-free survival [4]: 19 months; response rate [4]: 72%; time on drug until widespread disease progression [5]: 26 months; clinical response (in words) ([5]; RECIST v1.1): durable partial response; reduction in disease burden ([5]; RECIST v1.1): 64%; inhibition of phosphorylation of ROS1 and downstream effectors SHP2, ERK1/2, AKT and STAT3 [6]: dose-dependent inhibition

Q: For `COc1cc2c(Oc3ccc(NC(=O)C4(C(=O)Nc5ccc(F)cc5)CC4)cc3F)ccnc2cc1OCCCN1CCOCC1` [foretinib], which “sensitivity of CD74-ROS1D2033N mutant (in words)” value ([3]; Ba/F3 cells, 72 h) is on record?
A: The value was “remained highly sensitive”.
